In patent US20260256792A1, “TREATMENT OF CHRONIC SPONTANEOUS URTICARIA BY ADMINISTERING (R)-2-[3-[4-AMINO-3-(2-FLUORO-4-PHENOXY-PHENYL)PYRAZOLO[3,4-D]PYRIMIDIN-1-YL]PIPERIDINE-1-CARBONYL]-4-METHYL-4-[4-(OXETAN-3-YL)PIPERAZIN-1-YL]PENT-2-ENENITRILE” (priority 2023, published 2026):

System: angioedema in CSU patients
Test: Phase 2 CSU study: angioedema activity score over 7 days (AAS7)
Type: in vivo, human
Parameters: AAS7, Median / AAS7 Change from baseline, Median: scale not given here
Source text: The study comprises a 12 week, randomized, double-blind, placebo-controlled, multi-center, dose-ranging efficacy and safety phase, followed by a 40 week open label extension (OLE) phase (see FIG. 1). The study consists of three phases and an optional OLE phase. […] The weekly angioedema activity score (AAS7) was proposed as a tertiary endpoint. […] Patients were to complete the AAS using the e-diary. The e-diary was to be used once daily on the same time of each day recording of participant's answers to the angioedema activity score over 7 days (AAS7) questionnaire.

[1] = Omalizumab-Naïve Population, 400 mg TID, Week 7
[2] = Omalizumab-Naïve Population, 400 mg TID, Week 8
[3] = Omalizumab-Naïve Population, 400 mg TID, Week 9
[4] = Omalizumab-Naïve Population, 400 mg TID, Week 10
[5] = Omalizumab-Naïve Population, 400 mg TID, Week 11
[6] = Omalizumab-Naïve Population, 400 mg TID, Week 12
[7] = Patients with Prior Omalizumab Use, 400 mg BID, Week 1
[8] = Patients with Prior Omalizumab Use, 400 mg BID, Week 2
[9] = Patients with Prior Omalizumab Use, 400 mg BID, Week 3
[10] = Patients with Prior Omalizumab Use, 400 mg BID, Week 4
[11] = Patients with Prior Omalizumab Use, 400 mg BID, Week 5
[12] = Patients with Prior Omalizumab Use, 400 mg BID, Week 6
[13] = Patients with Prior Omalizumab Use, 400 mg BID, Week 7
[14] = Patients with Prior Omalizumab Use, 400 mg BID, Week 8
[15] = Patients with Prior Omalizumab Use, 400 mg QPM, Week 1
[16] = Patients with Prior Omalizumab Use, 400 mg QPM, Week 2
[17] = Patients with Prior Omalizumab Use, 400 mg QPM, Week 3
[18] = Patients with Prior Omalizumab Use, 400 mg QPM, Week 4
[19] = Patients with Prior Omalizumab Use, 400 mg QPM, Week 5
[20] = Patients with Prior Omalizumab Use, 400 mg QPM, Week 6
[21] = Patients with Prior Omalizumab Use, 400 mg QPM, Week 7
[22] = Patients with Prior Omalizumab Use, 400 mg QPM, Week 8

Structure (SMILES): CC(C)(C=C(C#N)C(=O)N1CCC[C@@H](n2nc(-c3ccc(Oc4ccccc4)cc3F)c3c(N)ncnc32)C1)N1CCN(C2COC2)CC1 [rilzabrutinib, (R)-2-[3-[4-amino-3-(2-fluoro-4-phenoxy-phenyl)pyrazolo[3,4-d]pyrimidin-1-yl]piperidine-1-carbonyl]-4-methyl-4-[4-(oxetan-3-yl)piperazin-1-yl]pent-2-enenitrile]
- AAS7 Change from baseline, Median [1]: −27.00
- AAS7 Percent change from baseline, Mean (SD) [1]: −66.41 (55.40) %
- AAS7 Percent change from baseline, Median [1]: −93.41%
- AAS7 Change from baseline, Mean (SD) [2]: −33.38 (24.94)
- AAS7 Change from baseline, Median [2]: −25.00
- AAS7 Percent change from baseline, Mean (SD) [2]: −69.90 (38.13) %
- AAS7 Percent change from baseline, Median [2]: −85.88%
- AAS7, Median [3]: 1.40
- AAS7 Change from baseline, Mean (SD) [3]: −38.54 (26.30)
- AAS7 Change from baseline, Median [3]: −39.00
- AAS7 Percent change from baseline, Mean (SD) [3]: −78.96 (34.18) %
- AAS7 Percent change from baseline, Median [3]: −98.13%
- AAS7, Median [4]: 2.00
- AAS7 Change from baseline, Mean (SD) [4]: −39.26 (24.84)
- AAS7 Change from baseline, Median [4]: −40.00
- AAS7 Percent change from baseline, Mean (SD) [4]: −82.44 (32.63) %
- AAS7 Percent change from baseline, Median [4]: −96.61%
- AAS7, Median [5]: 3.00
- AAS7 Change from baseline, Mean (SD) [5]: −36.30 (27.49)
- AAS7 Change from baseline, Median [5]: −31.00
- AAS7 Percent change from baseline, Mean (SD) [5]: −76.08 (33.07) %
- AAS7 Percent change from baseline, Median [5]: −96.00%
- AAS7, Median [6]: 0.00
- AAS7 Change from baseline, Mean (SD) [6]: −37.55 (25.86)
- AAS7 Change from baseline, Median [6]: −31.00
- AAS7 Percent change from baseline, Mean (SD) [6]: −82.72 (30.20) %
- AAS7 Percent change from baseline, Median [6]: −100.00%
- AAS7, Mean (SD) [7]: 0.00 (0.00)
- AAS7, Median [7]: 0.00
- AAS7 Change from baseline, Mean (SD) [7]: −39.50 (3.54)
- AAS7 Change from baseline, Median [7]: −39.50
- AAS7 Percent change from baseline, Mean (SD) [7]: −100.00 (0.00) %
- AAS7 Percent change from baseline, Median [7]: −100.00%
- AAS7, Mean (SD) [8]: 0.00 (0.00)
- AAS7, Median [8]: 0.00
- AAS7 Change from baseline, Mean (SD) [8]: −39.50 (3.54)
- AAS7 Change from baseline, Median [8]: −39.50
- AAS7 Percent change from baseline, Mean (SD) [8]: −100.00 (0.00) %
- AAS7 Percent change from baseline, Median [8]: −100.00%
- AAS7, Mean (SD) [9]: 0.00 (0.00)
- AAS7, Median [9]: 0.00
- AAS7 Change from baseline, Mean (SD) [9]: −39.50 (3.54)
- AAS7 Change from baseline, Median [9]: −39.50
- AAS7 Percent change from baseline, Mean (SD) [9]: −100.00 (0.00) %
- AAS7 Percent change from baseline, Median [9]: −100.00%
- AAS7, Mean (SD) [10]: 0.00 (0.00)
- AAS7, Median [10]: 0.00
- AAS7 Change from baseline, Mean (SD) [10]: −39.50 (3.54)
- AAS7 Change from baseline, Median [10]: −39.50
- AAS7 Percent change from baseline, Mean (SD) [10]: −100.00 (0.00) %
- AAS7 Percent change from baseline, Median [10]: −100.00%
- AAS7, Mean (SD) [11]: 0.00 (0.00)
- AAS7, Median [11]: 0.00
- AAS7 Change from baseline, Mean (SD) [11]: −39.50 (3.54)
- AAS7 Change from baseline, Median [11]: −39.50
- AAS7 Percent change from baseline, Mean (SD) [11]: −100.00 (0.00) %
- AAS7 Percent change from baseline, Median [11]: −100.00%
- AAS7, Mean (SD) [12]: 0.00 (0.00)
- AAS7, Median [12]: 0.00
- AAS7 Change from baseline, Mean (SD) [12]: −39.50 (3.54)
- AAS7 Change from baseline, Median [12]: −39.50
- AAS7 Percent change from baseline, Mean (SD) [12]: −100.00 (0.00) %
- AAS7 Percent change from baseline, Median [12]: −100.00%
- AAS7, Mean (SD) [13]: 1.00 (1.41)
- AAS7, Median [13]: 1.00
- AAS7 Change from baseline, Mean (SD) [13]: −38.50 (2.12)
- AAS7 Change from baseline, Median [13]: −38.50
- AAS7 Percent change from baseline, Mean (SD) [13]: −97.62 (3.37) %
- AAS7 Percent change from baseline, Median [13]: −97.62%
- AAS7, Mean (SD) [14]: 0.00 (0.00)
- AAS7, Median [14]: 0.00
- AAS7 Change from baseline, Mean (SD) [14]: −39.50 (3.54)
- AAS7 Change from baseline, Median [14]: −39.50
- AAS7, Mean (SD) [15]: 27.00 (NC)
- AAS7, Median [15]: 27.00
- AAS7 Change from baseline, Mean (SD) [15]: 41.00 (NC)
- AAS7 Change from baseline, Median [15]: −41.00
- AAS7 Percent change from baseline, Mean (SD) [15]: −60.29 (NC) %
- AAS7 Percent change from baseline, Median [15]: −60.29%
- AAS7, Mean (SD) [16]: 25.00 (NC)
- AAS7, Median [16]: 25.00
- AAS7 Change from baseline, Mean (SD) [16]: −43.00 (NC)
- AAS7 Change from baseline, Median [16]: −43.00
- AAS7 Percent change from baseline, Mean (SD) [16]: −63.24 (NC) %
- AAS7 Percent change from baseline, Median [16]: −63.24%
- AAS7, Mean (SD) [17]: 29.00 (NC)
- AAS7, Median [17]: 29.00
- AAS7 Change from baseline, Mean (SD) [17]: −39.00 (NC)
- AAS7 Change from baseline, Median [17]: −39.00
- AAS7 Percent change from baseline, Mean (SD) [17]: −57.35 (NC) %
- AAS7 Percent change from baseline, Median [17]: −57.35%
- AAS7, Mean (SD) [18]: 26.00 (NC)
- AAS7, Median [18]: 26.00
- AAS7 Change from baseline, Mean (SD) [18]: −42.00 (NC)
- AAS7 Change from baseline, Median [18]: −42.00
- AAS7 Percent change from baseline, Mean (SD) [18]: −61.76 (NC) %
- AAS7 Percent change from baseline, Median [18]: −61.76%
- AAS7, Mean (SD) [19]: 37.00 (NC)
- AAS7, Median [19]: 37.00
- AAS7 Change from baseline, Mean (SD) [19]: −31.00 (NC)
- AAS7 Change from baseline, Median [19]: −31.00
- AAS7 Percent change from baseline, Mean (SD) [19]: −45.59 (NC) %
- AAS7 Percent change from baseline, Median [19]: −45.59%
- AAS7, Mean (SD) [20]: 21.00 (NC)
- AAS7, Median [20]: 21.00
- AAS7 Change from baseline, Mean (SD) [20]: −47.00 (NC)
- AAS7 Change from baseline, Median [20]: −47.00
- AAS7 Percent change from baseline, Mean (SD) [20]: −69.12 (NC) %
- AAS7 Percent change from baseline, Median [20]: −69.12%
- AAS7, Mean (SD) [21]: 12.00 (NC)
- AAS7, Median [21]: 12.00
- AAS7 Change from baseline, Mean (SD) [21]: −56.00 (NC)
- AAS7 Change from baseline, Median [21]: −56.00
- AAS7 Percent change from baseline, Mean (SD) [21]: −82.35 (NC) %
- AAS7 Percent change from baseline, Median [21]: −82.35%
- AAS7, Mean (SD) [22]: 18.00 (NC)
- AAS7, Median [22]: 18.00
- AAS7 Change from baseline, Mean (SD) [22]: −50.00 (NC)
